From patent publication US10851067B2, “Kv7 channel activators compositions and methods of use” (Knopp Biosciences LLC, priority 2018, dated 2020)

Each compound was assayed against Kv7.2/7.3 (Homo sapiens, UniProt O43525+O43526) (assay: Kv7.2/7.3 Activation Assay, QPatch single concentration screen). Conditions: Kv7.2/Kv7.3 co-expressing HEK cells, compound concentration 3 μM, steady-state current at end of 2 s pulse to −30 mV.
Assay type: cell-based
Design: host or cells: HEK cells, tetracycline-inducible expression; key: 1.2-2.9 (+); 3-3.9 (++); >4 (+++) fold increase over baseline; O represents open channel at holding potential
Procedure: Kv7.2/7.3 Activation Assay
The ability of compounds to potentiate K-currents in Kv7.2/7.3 containing HEK cells was assessed using planar patch-clamp on the QPatch automated screening platform.
The hKv7.2/7.3 cell line was obtained from Chantest (Cleveland, Ohio 44128) cat. #CT6147. These HEK cells will express the Kv7.2/7.3 ion channels when induced.
Cells were maintained in a media containing DMEM/F12; 50/50 (GIBCO cat. #11330), 10% Fetal Bovine Serum (FBS) (GIBCO cat. #26140), 100 units/mL Penicillin-Streptomycin (GIBCO cat. #15140), 0.005 mg/mL Blasticidin (INVIVOGEN cat. #ant-b1-1), 0.5 mg/mL Geneticin (GIBCO cat. #10131), 0.1 mg/mL Zeocin (GIBCO cat. #R25001). Cells used in the electrophysiology assay were maintained in a media without Blasticidin, Geneticin and Zeocin for 2 days and channel expression was induced by adding tetracycline (BIOLINE cat. #BIO-87030) at a final concentration of 1 mg/mL. Cells were grown in T-175 flask to ˜75% confluency. Currents were recorded 24 hours after channel induction.
Test compounds were prepared by performing serial dilutions on a Biomek NX^P (BECKMAN COULTER). Final dilutions were made in external recording solution with a final DMSO concentration of 0.1% DMSO. For single concentration screens each plate had 10 μM retigabine as a positive control and 0.1% DMSO as a negative control.
On the day of the experiment cells were washed with Hank's Balanced Salt Solution (HBBS) (GIBCO cat. #14175) and harvested with Tryple (GIBCO cat. #12604). Cells were then centrifuged at 2000 rpm for 5 minutes and resuspended in CHO-S-SFM (GIBCO cat. #12052) at ˜3×10^6 cells/mL. Cells were stirred for 30 minutes before experiments were started. External recording solution contained (in mM): NaCl (145), KCl (4), CaCl2 (2), MgCl2 (1), HEPES (10) and Glucose (10); pH was adjusted to 7.4 with NaOH and the osmolarity was adjusted to 300-305 mOsM with sucrose if necessary. Internal solution contained (in mM): KCl (125), KF (10), EGTA (5), Na2ATP (5), MgCl2 (3.2), HEPES (5); pH was adjusted to 7.2 with KOH and the osmolarity was adjusted to 298-302 mOsM with sucrose.
Potassium channel activity was measured on the QPatch HTX (Sophion Bioscience) using QPlates with 48-wells/plate. Each cell was taken as an independent experiment and only one compound was tested per well. Potassium channel activity was elicited by holding at −80 mV and stepping to −30 mV for 2 s followed by a 100 ms pulse to −120 mV.
Single Concentration Screen:
Baseline conditions were obtained by recording 5 sweeps in the external solution only, this was repeated for three applications of the external solution. The effect of test compounds on elicited current was then assessed by recording 5 sweeps in the presence of a 3 μM compound solution. The steady-state current at the end of the 2 s pulse to −30 mV was measured to determine the fold increase from baseline.

Kv7.2/7.3 Activity: increase over baseline in current	SMILES
O	CC(C)(O)c1ccc2nc(NC(=O)CC(C)(O)c3ccccc3)n(C34CC(C3)C4)c2c1 (single isomer, unassigned) [Example 335, N-(1-(bicyclo[1.1.1]pentan-1-yl)-6-(2-hydroxypropan-2-yl)-1H-benzo[d]imidazol-2-yl)-3-hydroxy-3-phenylbutanamide]
O	CC(O)(CC(=O)Nc1nc2c(F)cc(C#N)cc2n1C(C)(C)C)c1cccc(F)c1 (single isomer, unassigned) [Example 339, N-(1-(tert-butyl)-6-cyano-4-fluoro-1H-benzo[d]imidazol-2-yl)-3-(3-fluorophenyl)-3-hydroxybutanamide]
+ (1.2-2.9 (+))	CC(C)(C)Cn1c(NC(=O)CC(C)(O)c2ccccc2)nc2ccc(C#N)cc21 (single isomer, unassigned) [Example 341, N-(6-cyano-1-neopentyl-1H-benzo[d]imidazol-2-yl)-3-hydroxy-3-phenylbutanamide]
+ (1.2-2.9 (+))	CC(O)(CC(=O)Nc1nc2ccc(C#N)cc2n1CC1CC1)c1ccccc1 (single isomer, unassigned) [Example 344, N-(6-cyano-1-(cyclopropylmethyl)-1H-benzo[d]imidazol-2-yl)-3-hydroxy-3-phenylbutanamide]
+ (1.2-2.9 (+))	CC(O)(CC(=O)Nc1nc2cc(Cl)c(C#N)cc2n1C1CCC1)c1ccccc1 (single isomer, unassigned) [Example 347, N-(5-chloro-6-cyano-1-cyclobutyl-1H-benzo[d]imidazol-2-yl)-3-hydroxy-3-phenylbutanamide]
O	CC(O)(CC(=O)Nc1nc2c(F)cc(C#N)cc2n1C(C)(C)C)c1ccccc1F (single isomer, unassigned) [Example 348, N-(1-(tert-butyl)-6-cyano-4-fluoro-1H-benzo[d]imidazol-2-yl)-3-(2-fluorophenyl)-3-hydroxybutanamide]
+ (1.2-2.9 (+))	CC(O)(CC(=O)Nc1nc2cc(F)c(C#N)cc2n1C1CCC1)c1ccccc1 (single isomer, unassigned) [Example 350, N-(6-cyano-1-cyclobutyl-5-fluoro-1H-benzo[d]imidazol-2-yl)-3-hydroxy-3-phenylbutanamide]
+ (1.2-2.9 (+))	COc1cccc2nc(NC(=O)CC(C)(O)c3ccccc3)n(C3CCC3)c12 (single isomer, unassigned) [Example 358, N-(1-cyclobutyl-7-methoxy-1H-benzo[d]imidazol-2-yl)-3-hydroxy-3-phenylbutanamide]
O	CC(=O)c1c(F)ccc2nc(NC(=O)CC(C)(O)c3ccccc3)n(C3(C)CCC3)c12 (single isomer, unassigned) [Example 360, N-(7-acetyl-6-fluoro-1-(1-methylcyclobutyl)-1H-benzo[d]imidazol-2-yl)-3-hydroxy-3-phenylbutanamide]
O	CC(C)(O)c1ccc2nc(NC(=O)CC(C)(O)c3ccccc3)n(C34CC(C3)C4)c2c1 (single isomer, unassigned) [Example 371, N-(1-(bicyclo[1.1.1]pentan-1-yl)-6-(2-hydroxypropan-2-yl)-1H-benzo[d]imidazol-2-yl)-3-hydroxy-3-phenylbutanamide]
++ (3-3.9 (++))	CC(O)(CC(=O)Nc1nc2cc(F)c(C#N)cc2n1C1(C)CCC1)c1ccccc1F (single isomer, unassigned) [Example 373, N-(6-cyano-5-fluoro-1-(1-methylcyclobutyl)-1H-benzo[d]imidazol-2-yl)-3-(2-fluorophenyl)-3-hydroxybutanamide]
++ (3-3.9 (++))	CC(O)(CC(=O)Nc1nc2ccc(OC(F)F)c(F)c2n1C1(C)CCC1)c1ccccc1 (single isomer, unassigned) [Example 374, N-(6-(difluoromethoxy)-7-fluoro-1-(1-methylcyclobutyl)-1H-benzo[d]imidazol-2-yl)-3-hydroxy-3-phenylbutanamide]
+ (1.2-2.9 (+))	CC(O)(CC(=O)Nc1nc2cccc(C#N)c2n1C1(C)CCC1)c1ccccc1 (single isomer, unassigned) [Example 375, N-(7-cyano-1-(1-methylcyclobutyl)-1H-benzo[d]imidazol-2-yl)-3-hydroxy-3-phenylbutanamide]
+ (1.2-2.9 (+))	CC(C)(O)c1ccc2nc(NC(=O)CC3CC(F)(F)C3(F)F)n(C3(C)CCC3)c2c1 (single isomer, unassigned) [Example 376, N-(6-(2-hydroxypropan-2-yl)-1-(1-methylcyclobutyl)-1H-benzo[d]imidazol-2-yl)-2-(2,2,3,3-tetrafluorocyclobutyl)acetamide]
++ (3-3.9 (++))	CC(O)(CC(=O)Nc1nc2ccc(C#N)cc2n1C1(C)CCC1)c1c(F)cccc1F (single isomer, unassigned) [Example 384, N-(6-cyano-1-(1-methylcyclobutyl)-1H-benzo[d]imidazol-2-yl)-3-(2,6-difluorophenyl)-3-hydroxybutanamide]
+ (1.2-2.9 (+))	CC(O)(CC(=O)Nc1nc2ccc(C#N)cc2n1CC(F)(F)F)c1ccccc1 (single isomer, unassigned) [Example 396, N-(6-cyano-1-(2,2,2-trifluoroethyl)-1H-benzo[d]imidazol-2-yl)-3-hydroxy-3-phenylbutanamide]
+ (1.2-2.9 (+))	CC(C)(O)c1ccc2nc(NC(=O)CC3CC(F)(F)C3(F)F)n(C3CCC3)c2c1 (single isomer, unassigned) [Example 398, N-(1-cyclobutyl-6-(2-hydroxypropan-2-yl)-1H-benzo[d]imidazol-2-yl)-2-(2,2,3,3-tetrafluorocyclobutyl)acetamide]
++ (3-3.9 (++))	CC(O)(CC(=O)Nc1nc2ccc(OC(F)F)cc2n1C1CCC1)c1ccccc1 (single isomer, unassigned) [Example 402, N-(1-cyclobutyl-6-(difluoromethoxy)-1H-benzo[d]imidazol-2-yl)-3-hydroxy-3-phenylbutanamide]
++ (3-3.9 (++))	CC(C)(C)n1c(NC(=O)CC2CC(F)(F)C2(F)F)nc2c(F)cc(C#N)cc21 (single isomer, unassigned) [Example 416, N-(1-(tert-butyl)-6-cyano-4-fluoro-1H-benzo[d]imidazol-2-yl)-2-(2,2,3,3-tetrafluorocyclobutyl)acetamide]
++ (3-3.9 (++))	CC(O)(CC(=O)Nc1nc2ccc(OC(F)F)cc2n1C(C)(C)C)c1ccccc1 (single isomer, unassigned) [Example 418, N-(1-(tert-butyl)-6-(difluoromethoxy)-1H-benzo[d]imidazol-2-yl)-3-hydroxy-3-phenylbutanamide]

SMILES	Kv7.2/7.3 Activity: increase over baseline in current
CC(C)(O)c1cc(F)c2nc(NC(=O)CC3CC(F)(F)C3(F)F)n(C3CCC3)c2c1 (single isomer, unassigned) [Example 400, N-(1-cyclobutyl-4-fluoro-6-(2-hydroxypropan-2-yl)-1H-benzo[d]imidazol-2-yl)-2-(2,2,3,3-tetrafluorocyclobutyl)acetamide]	+++ (>4 (+++) fold increase over baseline)
